Laboratory results published in patent US10806711B2 (priority 2011, dated 2020).
Entries after “also recorded” stand apart in the source; their conditions may differ.

Experiments:
[1] = tested on: isolated ventricular myocytes; experiment: Myocyte Ca2+ transient and cytosolic Ca2+ measurement; type: cell-based, mouse
Procedure: Isolation of ventricular myocytes—Hearts from WT mice (12-week old) were perfused on the Langendorff system with a modified Krebs-Henseleit buffer (KHB) composed of (mM) NaCl 118, KCl 5.4, HEPES 10, NaH2PO4 0.33, MgCl2 2, glucose 10, taurine 30, butanedione monoxime 10 (pH=7.4). Then an enzyme solution (KHB containing 0.7 mg/ml type II collagenase, 0.1% BSA and 25 μM CaCl2) was used to digest the hearts for 10 min. Finally, ventricles of the hearts were excised, minced and filtered to obtain isolated cells. After sufficient sedimentation, the supernatant was removed and the cells were resuspended.
Myocyte Ca^2+ transient and cytosolic Ca^2+ measurement—Myocytes were loaded with Fluo-4 acetoxymethyl ester (7 μM) for 20 min at room temperature, followed by a 10 min wash with Tyrode's solution, and then placed onto a plexiglass chamber for recording. For Ca^2+ transient measurements, myocytes were excited under 0.5 Hz and 3 Hz field stimulation, and the fluorescence signals were obtained using a Nikon TE 2000 microscope and collected through an InCyt Standard photometry system. For cytosolic Ca^2+ analysis in quiescent myocytes, a Zeiss LSM 510 confocal microscope was used to record fluorescent images from resting myocytes. Line-scan mode was applied at 3.07 ms intervals with 512 pixels spaced at 0.056 μm. Drugs were dissolved in Tyrode's solution and perfused into the chamber. Images of myocytes were recorded every 30 s after drug application. Data analysis was performed using Clampfit 9.2 and Image J 1.44 software.
Water soluble probenecid was used for all of the myocyte experiments.

[2] = tested on: isolated ventricular myocytes; experiment: Myocyte contractility measurement; type: cell-based, mouse; details: ruthenium red pretreatment, 10^−7 M probenecid
Procedure: Isolation of ventricular myocytes—Hearts from WT mice (12-week old) were perfused on the Langendorff system with a modified Krebs-Henseleit buffer (KHB) composed of (mM) NaCl 118, KCl 5.4, HEPES 10, NaH2PO4 0.33, MgCl2 2, glucose 10, taurine 30, butanedione monoxime 10 (pH=7.4). Then an enzyme solution (KHB containing 0.7 mg/ml type II collagenase, 0.1% BSA and 25 μM CaCl2) was used to digest the hearts for 10 min. Finally, ventricles of the hearts were excised, minced and filtered to obtain isolated cells. After sufficient sedimentation, the supernatant was removed and the cells were resuspended. Myocyte contractility measurement—Myocytes were put on a plexiglass chamber containing a Tyrode's solution composed of (mM) NaCl 140, KCl, 5.4, MgCl2 1, CaCl2 1.8, HEPES 5, glucose 10 (pH=7.4). Myocytes were excited under 0.5 Hz field stimulation. After reaching the steady state, myocyte shortening and the rates of shortening (+dL/dt) and relengthening (−dL/dt) were imaged with a CCD camera and monitored by a video-edge detector. Drugs were dissolved in Tyrode's solution and perfused into the chamber. Data were continuously collected through the PCLAMP 9 software. Water soluble probenecid was used for all of the myocyte experiments.

HL-1 cells = type: cell-based
Procedure: Cell Viability Assays—Cell viability was assessed using the ApoTox-Glo Triplex Assay (Promega, Madison, Wis.) per manufacturer's instructions. Briefly, HL-1 cells were seeded in 96 well plates at a density of 1×10^4 cells/well and allowed to grow overnight in Claycomb media supplemented with 10% FBS, 100 U/ml penicillin/streptomycin, and 2 mM L-glutamine. […] GF-AFC viability was then added to ApoTox-Glo Assay Buffer at a ratio of 10 μl GF-AFC to 2.0 ml Assay Buffer and 20 μl of this mixture was added to each well and cells were incubated at 37° C. for 30 minutes. Fluorescence was measured at 400 nm (ex)/505 nm (em) and the data was normalized to untreated control cells.

N.N.N.N.N.N.N.N.N.N.N.N.N.N.[Cl-].[Cl-].[Cl-].[Cl-].[Cl-].[Cl-].[O-2].[O-2].[Ru+3].[Ru+3].[Ru+4] [ruthenium red]
effect on the increase of cytosolic Ca2+ by probenecid ([1]; ruthenium red 1 μM applied, 0.1 μM probenecid): fully blocked | effect of pretreatment on probenecid's effect on myocyte contractility [2]: completely abolished

C/C=C(/C)C(=O)O[C@H]1C(C)=C2[C@H]([C@@H]1OC(=O)CCCCCCC)[C@@](C)(OC(C)=O)C[C@H](OC(=O)CCC)[C@@]1(O)[C@H]2OC(=O)[C@@]1(C)O [thapsigargin]
effect on the change in cytosolic Ca2+ by probenecid ([1]; thapsigargin 10^−6 M pretreatment 15 minutes, 10^−7 M probenecid): abolished

CC(C)NCC(O)c1ccc(O)c(O)c1 (stereo not shown) [isoproterenol]
cell death at 24 hours, compared with H2O2 positive control (HL-1 cells; 1.0 mM, 24 hours): substantial cell death; also recorded: indistinguishable from H2O2 positive controls | cells still viable (HL-1 cells; 1.0 mM, 24 hours): less than 20% | cell death (HL-1 cells; 1.0 mM, after 4 and 8 hours of treatment): significant amount of cell death | cell death in HL-1 cells (Example 3 summary) (HL-1 cells; probenecid at supraphysiological, isoproterenol at clinically relevant concentrations): increased cell death
